Laboratory results as given in article PMC12563652 (International Journal of Molecular Sciences, 2025).
“Also recorded” adds a separate entry of the source.

What was measured:
[1] = target: T1, 5-HT2C serotoninergic receptor (Homo sapiens, UniProt P28335); assay: 5-HT2C intrinsic activity, antagonist mode (AequoScreen calcium mobilization); type: cell-based; conditions: n.a. = no activity at 10–5 M
T1 sequence (P28335 33-458): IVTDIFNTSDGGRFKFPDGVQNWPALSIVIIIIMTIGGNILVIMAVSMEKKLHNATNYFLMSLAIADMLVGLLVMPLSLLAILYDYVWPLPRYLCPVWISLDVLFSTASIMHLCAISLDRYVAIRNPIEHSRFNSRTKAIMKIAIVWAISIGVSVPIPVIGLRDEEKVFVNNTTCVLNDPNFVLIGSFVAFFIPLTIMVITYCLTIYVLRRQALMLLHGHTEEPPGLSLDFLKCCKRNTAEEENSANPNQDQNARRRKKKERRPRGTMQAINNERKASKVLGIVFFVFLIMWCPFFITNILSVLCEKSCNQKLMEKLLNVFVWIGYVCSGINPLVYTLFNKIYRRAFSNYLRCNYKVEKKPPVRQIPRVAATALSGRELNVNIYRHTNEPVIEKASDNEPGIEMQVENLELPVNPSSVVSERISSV
Protocol: The determination of intrinsic activity will be performed in accordance with the manufacturer’s Aequoscreen methodology—Perkin Elmer.
The cell density in the 96-well format was 5000 cells per well. Cell preparation for the assay was performed according to the manufacturer’s instructions for AequoScreen (PerkinElmer, Waltham, MA, USA). […] The cells suspension was applied onto the ligands with the injectors of the POLARstar optima reader (BMG Labtech, Ortenberg, Germany). […] The concentration and dilution series having four replicates were prepared as instructed in the AequoScreen Starter Kit Manual (PerkinElmer, Waltham, MA, USA). The wells received cell injections along with either the standard agonist or the compounds being evaluated, while the POLARstar optima reader documented the emitted light over a duration of 20 s. In the antagonist evaluation, cells were administered (50 μL) into the assay plate alongside antagonist solutions (50 μL). A single concentration of agonist (oxymetazoline) was injected (50 μL, final concentration EC80) into the preincubated (15–20 min) plate with cells and antagonist, and the emitted light was recorded for 20 s.

[2] = test system: 3T3-L1 adipocytes; assay: Steatosis, HCS LipidTOX imaging in 3T3-L1 adipocytes; type: cell-based, mouse
Protocol: The 3T3-L1 mouse embryonic fibroblast cell line (ATCC CRL-11605) was cultured according to the standard protocol in Dulbecco’s Modified Eagle Medium (DMEM) supplemented with 10% bovine calf serum, 100 µg/mL streptomycin, and 100 IU/mL penicillin, at 37 °C in a humidified atmosphere containing 5% CO2. Cells were seeded at a density of 10,000 cells/well in collagen type I–coated (10 µg/mL) 96-well plates and allowed to attach for 24 h. Differentiation was initiated by replacing the medium with induction medium composed of DMEM, 0.5 mM 3-isobutyl-1-methylxanthine (IBMX), 1 µM dexamethasone, and 10% fetal bovine serum (FBS). After 48 h (differentiation day 2), the medium was replaced with DMEM supplemented with 10% FBS and 10 µg/mL human recombinant insulin. After an additional 24 h, the medium was replaced with DMEM supplemented with 10% bovine calf serum, 100 µg/mL streptomycin, and 100 IU/mL penicillin. The medium was refreshed every 24 h for 10 consecutive days to allow full differentiation into adipocytes.
Lipid accumulation and phospholipidosis were evaluated using the HCS LipidTOX Phospholipidosis and Steatosis Detection Kit (Thermo Fisher Scientific). Cells were cultured in black, clear-bottom 96-well plates and treated as described. Next, cells were fixed with 4% paraformaldehyde (15 min), washed with PBS, and stained with LipidTOX Green Neutral Lipid Stain (for steatosis) and LipidTOX Red Phospholipidosis Detection Reagent, prepared according to the manufacturer’s instructions. Nuclei were counterstained with Hoechst 33342 (2 µg/mL). Image acquisition and quantitative analysis were performed using High Content Screening (HCS) technology on the ImageXpress XLS system (Molecular Devices). Lipid droplet and phospholipid content were quantified using automated image analysis pipelines.

[3] = test system: Danio rerio larvae; assay: Nile red fluorescence fat metabolism assay in zebrafish larvae; type: in vivo; conditions: 10 µg/mL, 48 h incubation of larvae
Protocol: The study was conducted based on the method described earlier by Jones et al.. Starting at 3 days after fertilization (dpf), larvae were placed into 6-well plates and incubated with the test solutions (compounds in E3: JP-14 at a concentration of 10 μg/mL or resveratrol or E3 alone) for 48 h. Resveratrol solution (20 μg/mL) was used as the reference compound. After 24 h, the solutions were replaced with new ones containing Nile red dye (9-diethylamino-5H-benzo[α]phenoxazine-5-one, Pol-aura, Poland) at a concentration of 100 ng/mL. Nile red is a selective fluorescent lipid dye used to stain lipid droplets. Incubation with the dye was therefore 24 h. Stock solution of Nile red was prepared earlier by dissolving it in acetone to a concentration of 500 μg/mL. After the incubation period, the larvae were rinsed 3 times with 0.1 M phosphate-buffered, pH 7.4 (PBS, Sigma-Aldrich, Schnelldorf, Germany) and anesthetized with cold […] tricaine solution (Sigma-Aldrich, Schnelldorf, Germany). Next, they were visualized under a fluorescence microscope (Zeiss.Discovery.V8, Zeiss, Oberkochen, Germany) and analyzed with ImageJ FIJI program (version 2.17.0).

[4] = test system: Danio rerio larvae; assay: Fructose-induced lipid disturbance in zebrafish larvae (Oil Red O); type: in vivo; conditions: 10 µg/mL with 4% fructose, 24 h
Protocol: Zebrafish larvae 4 dpf were incubated for another 24 h with 4% fructose (final solution) in embryo medium to induce metabolic disorders. Tested solutions (compounds in E3: JP-14 at concentration of 20 μg/mL or resveratrol of 40 μg/mL) were added to fructose solution (8% in E3). The final concentration of JP-14 was 10 μg/mL or resveratrol of 20 μg/mL. The control group was incubated with E3 only. Incubation was carried out in a 6-well plate (10 larvae/well) to which 3 mL of liquid was added per well. Larvae were then collected, euthanized with tricaine, and transferred to 4% formaldehyde solution. After 24 h, larvae were washed 3 times with PBS (Sigma-Aldrich, Germany) and stained for neutral lipids, similar to previous studies. Larvae incubated for 1 h in a solution of 0.25% oil red O (ORO, Merck, Darmstadt, Germany) in 60% isopropanol (Merck, Germany). The samples were then rinsed three times with 60% isopropanol and washed 6 times with PBS, then imaged on a microscope (OPTA-TECH MN16, Warszawa, Poland) and analyzed with the ImageJ FIJI program. […] Next, the samples were centrifuged (10 min, 3000 rpm, MPW-260R, MPW Med Instruments, Warszawa, Poland), and the amount of dye in supernatant was determined spectrophotometrically (MuLTISKAN.GO, Thermo Fisher Scientific Inc. Waltham, MA, USA) at a wavelength of 495 nm.

[5] = test system: platelet aggregation in rat whole blood; assay: In vitro collagen-induced platelet aggregation in rat whole blood (impedance aggregometry); type: cell-based; conditions: 50–200 µM, collagen 1.6 µg/mL
Protocol: In vitro platelet aggregation assays were conducted using freshly collected whole blood from rats, utilizing the Multiplate platelet function analyzer (Roche Diagnostics, Mannheim, Germany)—a five-channel device that measures electrical impedance, following methods described previously. Upon stimulation, platelets adhere to and aggregate on dual metal sensors within the test cuvette, causing an increase in electrical resistance, which corresponds to the number of platelets attached to the electrodes.
Blood was collected from the carotid artery of the rat into tubes coated with hirudin (S-Monovette, Sarstedt, Germany). A volume of 300 μL of the anticoagulated blood was mixed with 300 μL of prewarmed isotonic saline that contained the test compound or a vehicle control (0.1% DMSO) and incubated at 37 °C for 3 min under continuous stirring. Aggregation was triggered by adding collagen (final concentration: 1.6 µg/mL). Platelet activity was monitored for 6 min. Multiplate V2.04 software calculated the area under the curve (AUC) for each measurement to determine average platelet response.

Question: How did the “5-HT2C Ant EC50” value [1] turn out when `[H]/N=C(\N)NN=Cc1c(Cl)cncc1Cl` [JP-14, (E)-2-((3,5-Dichloropyridin-4-yl)Methylene)Hydrazine-1-Carboximidamide] was run?
Answer: did not exhibit any measurable agonistic or antagonistic activity

Question: And the “effect on steatosis under TAAR1 blockade” value ([2]; 10 µM + RTI-7470-44 (40 nM))?
Answer: abolished

Question: And the “steatosis (neutral lipid accumulation)” value ([2]; 10 µM, vs vehicle)?
Answer: statistically significant decrease

Question: And the “Nile red detectable fat” value [3]?
Answer: decrease

Question: And the fructose-induced yolk enlargement [4]?
Answer: partially attenuated

Question: And the “effect on collagen-induced platelet aggregation” value [5]?
Answer: did not alter; also recorded: did not influence
